Experimental data from paper PMC12056667 (Chemical Science, 2025).

Key:
[1] = molecular target: T1, Tet(X4) (Escherichia coli, UniProt A0A3T0V9Y5); test: FP competitive displacement of probe 6; type: binding; conditions: IC50app, Tet(X4) (Polarization), 25 nM 6, 40 nM Tet(X4), 5 mM MgCl2, 1 μM FAD, 100 mM Tris pH 7.0, 0.01% Triton X-100
Method: A 2× solution containing 80 nM Tet(X4), 2 μM FAD and 10 mM MgCl2 in the assay buffer was dispensed into the first 22 columns of a 384-well black, non-binding microtiter plate (Greiner Bio-One), 12.5 μL per well, using a microplate reagent dispenser. A solution of 2 μM FAD and 10 mM MgCl2 in the assay buffer was dispensed into the remaining columns to serve as a no enzyme control. A 3-fold, 10-point dilution series of substrates and inhibitors was made in DMSO in a V-bottom 96-well plate (Greiner Bio-One) with a highest concentration of 5 mM or 0.5 mM. Into one column was added DMSO with no inhibitor or substrate, to serve as a positive control. Tigecycline was included as a reference on every plate to ensure reproducibility. 0.5 μL of each dilution was transferred in quadruplicate to the 384-well plate containing enzyme solution using a CyBi-Well liquid-handling robot (CyBio). A solution of 50 nM 6 in the assay buffer was then dispensed, with 12.5 μL per well. The plate was briefly centrifuged (1000 rpm), then incubated at ambient temperature for 30 min prior to measuring the FP. Data points were normalised between the positive and negative controls. Normalised % response was plotted as a function of log10([Inhibitor]), and the IC50^app was determined by fitting the data to the equation: Y = Bottom + (top-bottom)/(1 + 10^Log(IC50) − X) × HillSlope in GraphPad Prism 9.4.1, where Y = % response and X = log10([Inhibitor]). Wells with unusual fluorescence intensities were manually identified and removed from the analysis. […]

[2] = molecular target: T1, Tet(X4); test: biochemical; conditions: 20 μM tigecycline, 50 nM Tet(X4), 100 μM NADPH, 5 mM MgCl2, 1 μM FAD, 100 mM TAPS pH 8.5; read-out: IC50, UPLC assay
Method: We then tested the binding of reported type 1 TDase inhibitors to Tet(X4) (Fig. 3f, ESI Fig. S17 ^†).[33,38,39] […] We also developed a complementary endpoint activity assay where the turnover of tigecycline by Tet(X4) in a 96-well plate was quenched by addition of 1%v/v formic acid and analysed chromatographically. The peak integrals of tigecycline and its hydroxylated degradation product at 254 nm following UPLC analysis were measured to determine turnover (Fig. 5a).
[…] A 3-fold, 10-point dilution series of the substrates and inhibitors was made in DMSO with a top concentration of 10 mM, unless otherwise stated, and transferred to the enzyme solution using a CyBi-Well liquid-handling robot (CyBio), 1 μL per well. On each plate, a column of no enzyme negative controls and no inhibitor (DMSO only) positive controls were included. The plate was incubated at 30 °C for 15 min. A solution containing 100 mM TAPS (pH 8.5), 40 μM tigecycline and 200 μM NADPH was then dispensed, with 49 μL per well. The plate was incubated at 30 °C for 20 min at 600 rpm. 10 μL of 10%v/v formic acid solution was then dispensed into all wells. Samples were analysed using an ACQUITY H-Class PLUS UPLC instrument (Waters) equipped with a pre-equilibrated ACQUITY BEH C18 column ([…], […], Waters) using a gradient of 1–50%v/v acetonitrile with 0.1%v/v formic acid in water with 0.1%v/v formic acid over 1.83 minutes at a flow rate of 0.5 mL min^−1. Instrument control and data processing were performed using MassLynx V4.1 software. The peaks representing tigecycline and 11a-hydroxy-tigecycline were integrated, used to calculate % conversion and then normalised between positive and negative controls. The normalised % response was plotted as a function of log10[Inhibitor], and the IC50 determined as described above.

Row | SMILES | IC50 [1] [µM] | IC50 [2] [µM]
1 | CC(=O)c1ccc2c(c1)N(CCCN1CCN(CCO)CC1)c1ccccc1S2 [Acetophenazine] | > 100 | > 100
2 | O=C(NCc1c(F)cc(F)cc1F)c1cn2c(c(O)c1=O)C(=O)N1[C@H]3CC[C@H](C3)O[C@@H]1C2 [Bictegravir] | 54.8 ± 10.6 | 76 ± 14
